Source: patent publication US20050282788A1, “Pharmaceutical compositions comprising silicones and two solubilized active principles” (GALDERMA S.A., priority 2004, published 2005)

Assays:
[1] = Stability of calcitriol in ethanol (HPLC assay against a reference); type: physicochemical; details: 30 ppm calcitriol in absolute ethanol, 0.02% BHT
Experimental: (§1) The stability of calcitriol was tested in various solvents, including ethanol 100 and a 75%/25% ethanol 100/cyclomethicone mixture. a) Stability of Calcitriol in Ethanol: A 30 ppm solution of calcitriol in absolute ethanol to 100% is prepared in the presence of 0.02% of butylated hydroxytoluene (BHT). At the starting time (T0) the calcitriol concentration is taken to be 100%.

[2] = Stability of calcitriol in the (ethanol/cyclopentasiloxane) mixture (HPLC assay against a reference); type: physicochemical; details: 30 ppm calcitriol, 0.02% BHT
Experimental: as §1, with “b)” for “a)”, “the (Ethanol/Cyclopentasiloxane) Mixture” for “Ethanol:”, “BHT.” for “butylated hydroxytoluene (BHT).”, “(TO)” for “(T0)”

calcitriol concentration (T0 taken to be 100%) ([1]; +4° C., T1 week): 97.7% | calcitriol concentration (T0 taken to be 100%) ([1]; +4° C., T2 weeks): 98.6% | calcitriol concentration (T0 taken to be 100%) ([1]; +4° C., T3 weeks): 98.1% | calcitriol concentration (T0 taken to be 100%) ([1]; +4° C., T4 weeks): 97.7% | calcitriol concentration (T0 taken to be 100%) ([1]; +30° C., T2 weeks): 93.4% | calcitriol concentration (T0 taken to be 100%) ([1]; +30° C., T4 weeks): 93.0% | calcitriol concentration (T0 taken to be 100%) ([1]; −18° C., T1 week): 100.9% | calcitriol concentration (T0 taken to be 100%) ([1]; −18° C., T2 weeks): 100.5% | calcitriol concentration (T0 taken to be 100%) ([1]; −18° C., T3 weeks): 99.5% | calcitriol concentration (T0 taken to be 100%) ([1]; −18° C., T4 weeks): 99.5% | calcitriol concentration (T0 taken to be 100%) ([2]; +4° C., T2 weeks): 99.2% | calcitriol concentration (T0 taken to be 100%) ([2]; +4° C., T3 weeks): 99.6% | calcitriol concentration (T0 taken to be 100%) ([2]; +4° C., T4 weeks): 97.5% | calcitriol concentration (T0 taken to be 100%) ([2]; +30° C., T2 weeks): 93.8% | calcitriol concentration (T0 taken to be 100%) ([2]; +30° C., T4 weeks): 93.3% | calcitriol concentration (T0 taken to be 100%) ([2]; −18° C., T2 weeks): 100.4% | calcitriol concentration (T0 taken to be 100%) ([2]; −18° C., T3 weeks): 101.3% | calcitriol concentration (T0 taken to be 100%) ([2]; −18° C., T4 weeks): 99.2%
SMILES: C=C1/C(=C\C=C2/CCC[C@]3(C)[C@@H]([C@H](C)CCCC(C)(C)O)CC[C@@H]23)C[C@@H](O)C[C@@H]1O [calcitriol]
